From patent US20110288007A1 (priority 2008, published 2011)

Legend:
Assay type in all cases: cell-based
Parameters in all cases: key: —: No effect (i.e. no significant difference between control [culture with no peptide] and culture with peptide); *: ~1 log effect (i.e. culture with peptide that's growth was ~1 log less than control); **: 1-2 log effect; ***: 2-4 log effect; ****: >4 log effect; “”: “Immediate effect” (i.e. loss of growth by at least 1 log compared to control immediately on addition of peptide [T = 0]
F. novicida U112 = test system: F. novicida U112
S. aureus ATCC29213 = conditions: peptide 102 μg/mL, reduction of number of bacteria vs control
B. cepacia J2540 = test system: B. cepacia J2540
[1] = test system: B. anthracis Vegetative UM23-Cl2
[2] = test system: Y. pseudotuberculosis IP32593
[3] = test system: Y. pseudotuberculosis YPIII
B. thailandensis E264 = test system: B. thailandensis E264
F. tularensis LVS = test system: F. tularensis LVS

Row | Sequence | Effect of peptides after 4 hours incubation with bacteria, F. novicida U112 (F. novicida U112) | Effect of peptides after 4 hours incubation with bacteria, S. aureus ATCC29213 (S. aureus ATCC29213) | Effect of peptides after 4 hours incubation with bacteria, B. cepacia J2540 (B. cepacia J2540) | Effect of peptides after 4 hours incubation with bacteria, B. anthracis Vegetative UM23-Cl2 [1] | Effect of peptides after 4 hours incubation with bacteria, Y. pseudotuberculosis IP32593 [2] | Effect of peptides after 4 hours incubation with bacteria, Y. pseudotuberculosis YPIII [3] | Effect of peptides after 4 hours incubation with bacteria, B. thailandensis E264 (B. thailandensis E264) | Effect of peptides after 4 hours incubation with bacteria, F. tularensis LVS (F. tularensis LVS)
1 | LLGDFFRKSKEKIGKEFKRIVQRIKDFLRNLVPRTES [LL-37] | — | — | — | — | — | — | — | —
2 | GIGKFLHSAKKFGKAFVGEIMNS [Magainin II] | — | **** (>4 log effect) |  |  | — |  | — | —
